{"source": "the kinase profiling compilation of Christmann-Franck et al. (2016)", "test_in_all_cases": "radiometric filter-binding kinase assay", "details_in_all_cases": "compound 10.0 µM", "key": {"TBK1 (human)": {"biological_target": "TBK1 (human) (UniProt Q9UHD2)"}, "CSNK1D (human)": {"biological_target": "CSNK1D (human) (UniProt P48730)"}, "EPHB2 (human)": {"biological_target": "EPHB2 (human) (UniProt P29323)"}, "MAPKAPK3 (human)": {"biological_target": "MAPKAPK3 (human) (UniProt Q16644)"}, "MAP3K7 TAB1 (human)": {"biological_target": "MAP3K7 TAB1 (human) (UniProt Q15750+O43318)"}, "EPHA4 (human)": {"biological_target": "EPHA4 (human) (UniProt P54764)"}, "IRAK4 (human)": {"biological_target": "IRAK4 (human) (UniProt Q9NWZ3)"}, "INSRR (human)": {"biological_target": "INSRR (human) (UniProt P14616)"}, "[1]": {"system": "PAK2 (human), Q13177 [T402E]"}, "[2]": {"system": "RPS6KB1 (human), P23443 [T412E]"}, "FGFR1 (human)": {"biological_target": "FGFR1 (human) (UniProt P11362)"}, "INSR (human)": {"biological_target": "INSR (human) (UniProt P06213)", "sequence (P06213 whole entry, looked up)": "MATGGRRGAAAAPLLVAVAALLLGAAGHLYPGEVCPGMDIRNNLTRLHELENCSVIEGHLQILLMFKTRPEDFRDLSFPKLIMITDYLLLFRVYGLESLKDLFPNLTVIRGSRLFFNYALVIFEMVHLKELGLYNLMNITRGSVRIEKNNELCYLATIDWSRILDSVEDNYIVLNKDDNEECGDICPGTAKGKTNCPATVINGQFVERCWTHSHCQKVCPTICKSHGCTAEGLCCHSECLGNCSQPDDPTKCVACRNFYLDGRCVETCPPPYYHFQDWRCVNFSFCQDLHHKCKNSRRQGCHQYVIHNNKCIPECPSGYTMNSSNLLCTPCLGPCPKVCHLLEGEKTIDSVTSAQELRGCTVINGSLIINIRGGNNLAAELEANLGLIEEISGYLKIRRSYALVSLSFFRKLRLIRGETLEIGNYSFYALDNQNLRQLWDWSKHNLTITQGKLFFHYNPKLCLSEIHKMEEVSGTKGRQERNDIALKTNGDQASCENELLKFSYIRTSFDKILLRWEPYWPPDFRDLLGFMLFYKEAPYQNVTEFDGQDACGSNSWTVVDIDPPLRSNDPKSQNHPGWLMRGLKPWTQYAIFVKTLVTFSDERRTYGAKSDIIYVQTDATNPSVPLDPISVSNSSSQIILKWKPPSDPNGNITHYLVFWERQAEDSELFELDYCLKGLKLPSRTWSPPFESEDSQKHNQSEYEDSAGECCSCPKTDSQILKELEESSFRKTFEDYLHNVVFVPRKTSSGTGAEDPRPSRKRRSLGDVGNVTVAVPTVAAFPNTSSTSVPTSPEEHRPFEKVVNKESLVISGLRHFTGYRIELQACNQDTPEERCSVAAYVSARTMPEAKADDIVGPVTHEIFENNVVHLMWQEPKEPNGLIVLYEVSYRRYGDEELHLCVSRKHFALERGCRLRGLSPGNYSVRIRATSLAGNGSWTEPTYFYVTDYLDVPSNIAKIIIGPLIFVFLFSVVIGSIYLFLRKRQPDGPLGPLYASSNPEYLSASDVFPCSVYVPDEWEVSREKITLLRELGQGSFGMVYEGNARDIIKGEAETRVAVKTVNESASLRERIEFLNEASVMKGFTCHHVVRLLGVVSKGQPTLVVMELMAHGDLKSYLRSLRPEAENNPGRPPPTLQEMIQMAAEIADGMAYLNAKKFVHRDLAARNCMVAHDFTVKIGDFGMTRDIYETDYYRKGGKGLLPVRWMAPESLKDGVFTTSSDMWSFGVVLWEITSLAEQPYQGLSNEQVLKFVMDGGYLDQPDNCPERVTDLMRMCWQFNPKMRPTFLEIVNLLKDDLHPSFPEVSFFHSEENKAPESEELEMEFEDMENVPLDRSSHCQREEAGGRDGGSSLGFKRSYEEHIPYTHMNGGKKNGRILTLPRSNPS"}, "MELK (human)": {"biological_target": "MELK (human) (UniProt Q14680)"}, "RIPK2 (human)": {"biological_target": "RIPK2 (human) (UniProt O43353)", "sequence (O43353 whole entry, looked up)": "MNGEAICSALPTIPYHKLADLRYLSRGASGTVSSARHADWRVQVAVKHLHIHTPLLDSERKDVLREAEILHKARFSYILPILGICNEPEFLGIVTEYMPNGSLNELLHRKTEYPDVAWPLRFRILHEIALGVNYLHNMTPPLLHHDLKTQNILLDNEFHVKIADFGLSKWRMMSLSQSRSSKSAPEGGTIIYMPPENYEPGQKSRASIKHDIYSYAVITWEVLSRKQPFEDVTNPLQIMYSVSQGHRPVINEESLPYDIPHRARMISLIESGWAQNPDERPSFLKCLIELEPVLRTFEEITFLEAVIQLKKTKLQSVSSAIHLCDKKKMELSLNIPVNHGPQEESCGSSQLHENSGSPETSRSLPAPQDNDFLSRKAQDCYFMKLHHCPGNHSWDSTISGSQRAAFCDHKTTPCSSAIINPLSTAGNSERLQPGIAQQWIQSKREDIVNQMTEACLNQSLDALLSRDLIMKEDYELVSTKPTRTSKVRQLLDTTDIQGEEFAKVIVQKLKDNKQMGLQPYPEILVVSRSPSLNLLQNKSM"}, "RPS6KA3 KD1 KD2 (human)": {"biological_target": "RPS6KA3 KD1 KD2 (human) (UniProt P51812)"}, "[3]": {"system": "SGK1 (human), O00141 [S422D]"}, "CLK2 (human)": {"biological_target": "CLK2 (human) (UniProt P49760)", "sequence (P49760 whole entry, looked up)": "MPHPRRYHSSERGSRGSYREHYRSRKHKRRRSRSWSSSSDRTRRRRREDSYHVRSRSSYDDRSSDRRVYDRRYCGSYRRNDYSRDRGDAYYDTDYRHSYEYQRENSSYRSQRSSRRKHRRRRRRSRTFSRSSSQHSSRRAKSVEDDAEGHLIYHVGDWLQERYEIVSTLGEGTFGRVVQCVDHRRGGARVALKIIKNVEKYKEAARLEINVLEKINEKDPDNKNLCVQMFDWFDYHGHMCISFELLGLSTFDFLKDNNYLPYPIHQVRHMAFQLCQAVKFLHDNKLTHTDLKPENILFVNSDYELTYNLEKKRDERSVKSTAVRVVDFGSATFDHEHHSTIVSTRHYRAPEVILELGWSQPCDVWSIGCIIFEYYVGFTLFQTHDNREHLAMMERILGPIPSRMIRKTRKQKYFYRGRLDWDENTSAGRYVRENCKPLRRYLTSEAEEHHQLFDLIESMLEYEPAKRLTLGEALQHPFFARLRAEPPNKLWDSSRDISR"}, "BRSK2 (human)": {"biological_target": "BRSK2 (human) (UniProt Q8IWQ3)"}, "MARK4 (human)": {"biological_target": "MARK4 (human) (UniProt Q96L34)"}, "TTK (human)": {"biological_target": "TTK (human) (UniProt P33981)"}, "CDK2 CCNA2 (human)": {"biological_target": "CDK2 CCNA2 (human) (UniProt P20248+P24941)"}, "MAP2K2 (human)": {"biological_target": "MAP2K2 (human) (UniProt P36507)"}, "MYLK (human)": {"biological_target": "MYLK (human) (UniProt Q15746)"}, "JAK2 JH1 JH2 (human)": {"biological_target": "JAK2 JH1 JH2 (human) (UniProt O60674)", "sequence (O60674 whole entry, looked up)": "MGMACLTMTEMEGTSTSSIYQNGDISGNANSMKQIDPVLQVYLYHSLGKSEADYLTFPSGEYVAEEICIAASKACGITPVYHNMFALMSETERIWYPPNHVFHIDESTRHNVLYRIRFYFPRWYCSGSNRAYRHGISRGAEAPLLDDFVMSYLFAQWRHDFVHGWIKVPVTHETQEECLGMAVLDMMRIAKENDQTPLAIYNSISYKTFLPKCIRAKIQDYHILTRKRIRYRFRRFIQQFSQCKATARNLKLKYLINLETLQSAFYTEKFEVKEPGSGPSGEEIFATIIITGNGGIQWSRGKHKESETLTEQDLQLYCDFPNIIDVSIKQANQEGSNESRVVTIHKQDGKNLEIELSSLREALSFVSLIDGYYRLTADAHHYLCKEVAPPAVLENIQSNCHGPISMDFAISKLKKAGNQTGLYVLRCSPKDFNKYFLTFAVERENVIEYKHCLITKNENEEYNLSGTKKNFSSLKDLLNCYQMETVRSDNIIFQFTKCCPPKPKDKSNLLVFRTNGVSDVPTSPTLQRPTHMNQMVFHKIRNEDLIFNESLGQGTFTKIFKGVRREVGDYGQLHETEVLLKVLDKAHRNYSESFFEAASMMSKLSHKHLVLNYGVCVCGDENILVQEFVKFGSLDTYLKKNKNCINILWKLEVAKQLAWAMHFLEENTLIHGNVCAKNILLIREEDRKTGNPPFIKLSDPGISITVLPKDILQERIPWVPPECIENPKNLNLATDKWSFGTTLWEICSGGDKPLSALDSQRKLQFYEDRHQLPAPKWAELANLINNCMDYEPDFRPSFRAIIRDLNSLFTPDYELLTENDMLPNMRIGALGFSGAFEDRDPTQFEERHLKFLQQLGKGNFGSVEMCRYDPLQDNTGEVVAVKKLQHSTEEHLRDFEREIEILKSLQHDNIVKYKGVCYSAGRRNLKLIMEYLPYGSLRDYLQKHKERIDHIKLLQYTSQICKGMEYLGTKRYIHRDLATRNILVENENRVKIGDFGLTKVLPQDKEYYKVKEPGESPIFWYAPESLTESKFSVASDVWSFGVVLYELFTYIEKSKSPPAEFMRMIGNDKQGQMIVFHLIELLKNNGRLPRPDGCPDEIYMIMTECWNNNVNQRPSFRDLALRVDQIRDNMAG"}, "PLK1 (human)": {"biological_target": "PLK1 (human) (UniProt P53350)", "sequence (P53350 whole entry, looked up)": "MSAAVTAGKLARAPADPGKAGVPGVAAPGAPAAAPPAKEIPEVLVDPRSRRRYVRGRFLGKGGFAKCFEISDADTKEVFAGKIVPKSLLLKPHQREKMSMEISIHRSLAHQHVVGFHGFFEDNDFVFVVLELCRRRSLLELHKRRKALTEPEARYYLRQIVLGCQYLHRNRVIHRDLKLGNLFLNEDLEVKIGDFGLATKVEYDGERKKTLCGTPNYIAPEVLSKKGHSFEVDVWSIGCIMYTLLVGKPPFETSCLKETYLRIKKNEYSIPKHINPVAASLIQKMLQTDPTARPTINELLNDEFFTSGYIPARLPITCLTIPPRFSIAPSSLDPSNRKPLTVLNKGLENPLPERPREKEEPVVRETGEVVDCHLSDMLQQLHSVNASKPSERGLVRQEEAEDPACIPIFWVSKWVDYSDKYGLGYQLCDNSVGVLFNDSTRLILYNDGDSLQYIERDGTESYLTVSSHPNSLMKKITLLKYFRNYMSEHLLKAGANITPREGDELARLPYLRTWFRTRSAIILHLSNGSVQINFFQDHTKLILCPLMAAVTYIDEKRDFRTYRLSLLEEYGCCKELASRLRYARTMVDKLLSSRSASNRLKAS"}, "MAPK8 (human)": {"biological_target": "MAPK8 (human) (UniProt P45983)"}, "FLT1 (human)": {"biological_target": "FLT1 (human) (UniProt P17948)"}, "AURKA (human)": {"biological_target": "AURKA (human) (UniProt O14965)", "sequence (O14965 whole entry, looked up)": "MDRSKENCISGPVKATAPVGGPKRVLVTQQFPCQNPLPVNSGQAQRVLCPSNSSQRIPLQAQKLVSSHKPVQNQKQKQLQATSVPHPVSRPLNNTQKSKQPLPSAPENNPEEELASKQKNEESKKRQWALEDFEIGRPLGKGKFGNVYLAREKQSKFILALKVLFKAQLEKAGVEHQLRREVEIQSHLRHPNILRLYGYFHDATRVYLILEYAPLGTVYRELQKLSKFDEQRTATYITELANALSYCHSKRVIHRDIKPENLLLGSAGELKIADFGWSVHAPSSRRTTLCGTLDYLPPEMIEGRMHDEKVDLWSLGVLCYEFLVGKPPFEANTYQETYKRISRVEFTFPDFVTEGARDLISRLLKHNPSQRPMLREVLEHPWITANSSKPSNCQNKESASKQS"}, "CSK (human)": {"biological_target": "CSK (human) (UniProt P41240)"}, "MAP3K11 (human)": {"biological_target": "MAP3K11 (human) (UniProt Q16584)"}, "PIM3 (human)": {"biological_target": "PIM3 (human) (UniProt Q86V86)"}, "PIM1 (human)": {"biological_target": "PIM1 (human) (UniProt P11309)"}, "SYK (human)": {"biological_target": "SYK (human) (UniProt P43405)"}, "BRSK1 (human)": {"biological_target": "BRSK1 (human) (UniProt Q8TDC3)"}}, "data": [{"smiles": "CC(C)C[C@H](NC(=O)CNC(=O)c1cc(Cl)ccc1Cl)B1OC(=O)CC(CC(=O)O)(C(=O)O)O1", "note": "(some centres undefined)", "values": [{"measurement": "residual activity", "setting": "TBK1 (human)", "value": 81, "unit": "%"}, {"measurement": "residual activity", "setting": "CSNK1D (human)", "value": 81, "unit": "%"}, {"measurement": "residual activity", "setting": "EPHB2 (human)", "value": 95, "unit": "%"}, {"measurement": "residual activity", "setting": "MAPKAPK3 (human)", "value": 102, "unit": "%"}, {"measurement": "residual activity", "setting": "MAP3K7 TAB1 (human)", "value": 127, "unit": "%"}, {"measurement": "residual activity", "setting": "EPHA4 (human)", "value": 69, "unit": "%"}, {"measurement": "residual activity", "setting": "IRAK4 (human)", "value": 79, "unit": "%"}, {"measurement": "residual activity", "setting": "INSRR (human)", "value": 104, "unit": "%"}, {"measurement": "residual activity", "setting": "[1]", "value": 92, "unit": "%"}, {"measurement": "residual activity", "setting": "[2]", "value": 94, "unit": "%"}, {"measurement": "residual activity", "setting": "FGFR1 (human)", "value": 69, "unit": "%"}, {"measurement": "residual activity", "setting": "INSR (human)", "value": 58, "unit": "%"}, {"measurement": "residual activity", "setting": "MELK (human)", "value": 80, "unit": "%"}, {"measurement": "residual activity", "setting": "RIPK2 (human)", "value": 91, "unit": "%"}, {"measurement": "residual activity", "setting": "RPS6KA3 KD1 KD2 (human)", "value": 94, "unit": "%"}, {"measurement": "residual activity", "setting": "[3]", "value": 78, "unit": "%"}, {"measurement": "residual activity", "setting": "CLK2 (human)", "value": 79, "unit": "%"}, {"measurement": "residual activity", "setting": "BRSK2 (human)", "value": 90, "unit": "%"}, {"measurement": "residual activity", "setting": "MARK4 (human)", "value": 86, "unit": "%"}, {"measurement": "residual activity", "setting": "TTK (human)", "value": 93, "unit": "%"}, {"measurement": "residual activity", "setting": "CDK2 CCNA2 (human)", "value": 86, "unit": "%"}, {"measurement": "residual activity", "setting": "MAP2K2 (human)", "value": 94, "unit": "%"}, {"measurement": "residual activity", "setting": "MYLK (human)", "value": 103, "unit": "%"}, {"measurement": "residual activity", "setting": "JAK2 JH1 JH2 (human)", "value": 104, "unit": "%"}, {"measurement": "residual activity", "setting": "PLK1 (human)", "value": 97, "unit": "%"}, {"measurement": "residual activity", "setting": "MAPK8 (human)", "value": 85, "unit": "%"}, {"measurement": "residual activity", "setting": "FLT1 (human)", "value": 64, "unit": "%"}, {"measurement": "residual activity", "setting": "AURKA (human)", "value": 105, "unit": "%"}, {"measurement": "residual activity", "setting": "CSK (human)", "value": 69, "unit": "%"}, {"measurement": "residual activity", "setting": "MAP3K11 (human)", "value": 99, "unit": "%"}, {"measurement": "residual activity", "setting": "PIM3 (human)", "value": 92, "unit": "%"}, {"measurement": "residual activity", "setting": "PIM1 (human)", "value": 88, "unit": "%"}, {"measurement": "residual activity", "setting": "SYK (human)", "value": 66, "unit": "%"}, {"measurement": "residual activity", "setting": "BRSK1 (human)", "value": 90, "unit": "%"}]}]}
